Like-named read-outs stand apart in the source and are kept apart here.
How the values were obtained:
solubility in water = assay type: physicochemical; details: product of example 1
Protocol: As the water-solubility of Erianin is low, the solubility in water being just <1 mg/ml, its preparation performance and clinical application are limited, so it is necessary to study the salts that can improve its water-solubility. At present, there is not any literature on the salts of Erianin and it's preparing process.
Cooling the crude acyl chloride in ice bath, adding sodium hydroxide solution (2 mol/L) while stirring till the PH value of the mixture is between 8˜10, stirring for 8 hours at 50° C.˜80° C., filtering to remove the insoluble substance, decompressing to evaporate most of the solvent, cooling for the white solid to be separated, which is the crude disodium phosphate of Erianin; Dissolving the crude product with ethanol while heated, filtering to remove the insoluble solid while hot, and cooling the filtrate for separated crystal as pure disodium phosphate of Erianin (6.0 g), a white crystal product with a yield of 86% m.p. 266-269° C., (splitting), dissolubility in water: 200 mg/ml.

Kunming mice = test: LD50 determination of disodium phosphate of Erianin; assay type: in vivo; details: for deaths, death rate in total: 10 mice
Protocol: Experimental animal: Kunming mice, provided by Shanghai Slac Laboratory Animal Co., Ltd., weight being between 18˜22 g, half and half of female and male.
Reagent: 0.9% NaCl, disodium phosphate of Erianin (AP), provided by Zhejiang Cell Biomedical Research Co., Ltd., which is prepared by the process above, bitter acid.
(1) Experimental animal: Kunming mice, set up in 7 groups, 10 mice every group and half and half of female and male. Marked by bitter acid.
(2) In every group, administering by vena caudalis injection according to body weight of 1300 mg/kg, 1250 mg/kg, 1200 mg/kg, 1150 mg/kg, 1100 mg/kg, 1050 mg/kg, 1000 mg/kg.
(3) Observing at 0.25 h, 0.5 h, 1 h, 2 h, 4 h, 24 h respectively after administration and recording the death rate; then observing once every day and recording the death rate (table 1) for 14 days; putting the mice still alive to death on the 15th day and giving pathological anatomy.

S180 tumor = details: for Weight 10 d: body weight day 10; for Tumor weight / rate of tumor inhibition: day 10; for Weight 0 d: body weight day 0
Text: Samples: disodium phosphate of Erianin (AP, prepared by the process of example 1) prepared the concentration needed with physiologic saline.
Control medicine: cyclophosphamide for injection (CTX), Shanghai Hualian Pharmaceutical Co., Ltd, batch number: 020806. dissolved with physiologic saline for use.
Fifty Kunming mice, female, weight: […], provided by the animal house in Shanghai Institute of Pharmaceutical Industry.
Two S180 ascites tumor mice, provided by the animal house in Shanghai Institute of Pharmaceutical Industry.
Drawing ascites under aseptic condition from S180 ascites tumor mice, counting the cells, diluting to 1-2×10^7/ml with physiologic saline, giving subcutaneous inoculation in the armpit of the mice with 0.2 ml each, randomly dividing the mice equally into five groups the next day, ten in each group.
Dosage for administration (mg/kg./d): AP 25 mg/kg, 75 mg/kg, 225 mg/kg
Means of administration: intravenous injection
The control medicine, cyclophosphamide, administered by intravenous injection, the dosage being 30 mg/kg×9d.
And setting up blank control group.
Administering medicine to the mice by weight the next day of inoculation, […] 0.5 ml/20 g for 9 days, by weight, and putting them to death on the tenth day after inoculation, weighing the tumor and calculating the rate of tumor inhibition.
Assessing the result according to the following formula: […]

[1] = background statement; cited from earlier work
liver cancer of mouse = details: cited from earlier work
[2] = system: human leukemia HL-60 cells; details: cited from earlier work
tumor cell strain K256 = details: among dihydrobibenzyls and phenanthrenes in Dendrobium chrysotoxum; cited from earlier work

In the case of “3,4,5,4′-tetramethoxyl diphenylethane-3′-O-disodic phosphate [AP]”, the dissolubility in water (solubility in water) is reported as 200 mg/mL, the “deaths, death rate in total” value (Kunming mice; 1000 mg/kg i.v.) is reported as 0 and the “deaths, death rate in total” value (Kunming mice; 1050 mg/kg i.v.) is reported as 1. For the same compound, the deaths (Kunming mice; 1050 mg/kg i.v., day 1) was 1, the “deaths, death rate in total” value (Kunming mice; 1100 mg/kg i.v.) was 3 and the deaths (Kunming mice; 1100 mg/kg i.v., day 1) was 3. For the same compound, the “deaths, death rate in total” value (Kunming mice; 1150 mg/kg i.v.) was 1, the deaths (Kunming mice; 1150 mg/kg i.v., day 1) was 1 and the “deaths, death rate in total” value (Kunming mice; 1200 mg/kg i.v.) was 3. The deaths (Kunming mice; 1200 mg/kg i.v., day 5) was 1, the deaths (Kunming mice; 1200 mg/kg i.v., day 6) was 1 and the deaths (Kunming mice; 1200 mg/kg i.v., hours 0-4) was 1. The “deaths, death rate in total” value (Kunming mice; 1250 mg/kg i.v.) was 6, the deaths (Kunming mice; 1250 mg/kg i.v., day 1) was 3 and the deaths (Kunming mice; 1250 mg/kg i.v., day 2) was 2. For the same compound, the deaths (Kunming mice; 1250 mg/kg i.v., hours 0-4) was 1, the “deaths, death rate in total” value (Kunming mice; 1300 mg/kg i.v.) was 7 and the deaths (Kunming mice; 1300 mg/kg i.v., day 1) was 6. For the same compound, the deaths (Kunming mice; 1300 mg/kg i.v., day 3) was 1, the LD50 (Kunming mice; Kunming mice, vena caudalis injection, 14 days observation) was 1243.0377 mg/kg and the pathological anatomy (Kunming mice; mice died during the experiment and mice executed after 14 days) was “no obvious pathological change”. The “Weight 10 d” value (S180 tumor; 25 mg/kg i.v. for 9 days) was 22.93 ± 1.28 g, the Tumor weight (S180 tumor; 25 mg/kg i.v. for 9 days) was 1.42 ± 0.26 and the “rate of tumor inhibition” value (S180 tumor; 25 mg/kg i.v. for 9 days) was 42%. The “Weight 0 d” value (S180 tumor; 25 mg/kg i.v.) was 18.37 ± 1.58 g, the “Weight 10 d” value (S180 tumor; 75 mg/kg i.v. for 9 days) was 22.75 ± 2.25 g and the Tumor weight (S180 tumor; 75 mg/kg i.v. for 9 days) was 0.82 ± 0.20. For the same compound, the “rate of tumor inhibition” value (S180 tumor; 75 mg/kg i.v. for 9 days) was 67%, the “Weight 0 d” value (S180 tumor; 75 mg/kg i.v.) was 18.41 ± 1.74 g and the “Weight 10 d” value (S180 tumor; 225 mg/kg i.v. for 9 days) was 22.01 ± 3.46 g. For the same compound, the Tumor weight (S180 tumor; 225 mg/kg i.v. for 9 days) was 0.69 ± 0.08, the “rate of tumor inhibition” value (S180 tumor; 225 mg/kg i.v. for 9 days) was 72% and the “Weight 0 d” value (S180 tumor; 225 mg/kg i.v.) was 19.65 ± 1.26 g.

With O=P1(N(CCCl)CCCl)NCCCO1 (centres unmarked) [CTX, cyclophosphamide, reference compound] the “Weight 0 d” value (S180 tumor; 30 mg/kg i.v.) was 19.78 ± 1.20 g, the “Weight 10 d” value (S180 tumor; 30 mg/kg×9d i.v.) was 19.58 ± 2.54 g and the Tumor weight (S180 tumor; 30 mg/kg×9d i.v.) was 0.41 ± 0.17. The “rate of tumor inhibition” value (S180 tumor; 30 mg/kg×9d i.v.) was 83%.

In the case of COc1ccc(CCc2cc(OC)c(OC)c(OC)c2)cc1O [Erianin], the solubility in water [1] is given as under 1 mg/mL, the tumor inhibitory rate (liver cancer of mouse) is given as 50.82% and the “growth of human leukemia HL-60 cells” value [2] is given as “significantly inhibited”. For the same compound, the “inhibitory effect on the growth of tumor cell strain K256” value (tumor cell strain K256) was “the most active”.
